From paper PMC2857364, “Inhibition of Nitric Oxide (NO) Production in Lipopolysaccharide (LPS)-Activated Murine Macrophage RAW 264.7 Cells by the Norsesterterpene Peroxide, Epimuqubilin A” (Marine Drugs, 2010)
Counter-ions that a name gives are not always drawn. Like-named read-outs stand apart in the source and are kept apart here.

How the values were obtained:
RAW 264.7 cells = experiment: SRB assay for cytotoxic effect in RAW 264.7 cells under the NO assay condition; type: cell-based, murine; settings: for Cytotoxic effects: at 12.8 μM, RAW 264.7 cells, SRB
Procedure: (§1) In addition, to determine whether the inhibitory effects of compounds on NO production were due to specific pharmacological activities, or non-specific cell cytotoxicity leading to false positive results, RAW 264.7 cell viability was determined by using the sulforhodamine B (SRB) protein staining method. Compounds 1 and 6 mediated a modest cytototoxic response, with 36.1 and 43.0% percent survival, respectively, at the highest concentration tested (20 μg/mL; 51.0 μM). Cytotoxic effects diminished with lower concentrations. […] Further experiments will be performed to determine whether epimuqubilin A inhibits nitrite production via suppression of iNOS expression in the levels of protein.
(§2) The inhibitory effects of samples on NO production were evaluated in LPS-activated murine macrophage RAW 264.7 cells, using a method modified from that previously reported. Briefly, RAW 264.7 cells were cultured in Dulbecco’s modified Eagle’s medium (DMEM) supplemented with penicillin G sodium (100 units/mL), streptomycin sulfate (100 μg/mL), amphotericin B (0.25 μg/mL), and 10% fetal bovine serum (FBS). The cells were seeded in 96-well culture plates with 1 × 10^5 cells/well and incubated for 24 h at 37°C in a humidified atmosphere containing 5% CO2. The cells were treated with samples dissolved in phenol red-free DMEM for 30 min followed by 1 μg/mL of LPS treatment for 20 h. The amount of NO in the cultured medium was measured by the Griess reagent. The standard curve was created by using known concentrations of sodium nitrite, and the absorbance was measured at 540 nm. To evaluate the cytotoxic effect of samples in RAW 264.7 cells in the assay condition, SRB assay was performed. Briefly, after the fixation with 10% trichloroacetic acid (TCA), cells were stained with 0.4% SRB solution in 1% acetic acid followed by dissolving bound SRB in 10 mM Tris-buffer. The optical density was determined at 515 nm.

[1] = as above; type: cell-based, murine; settings: mouse, RAW 264.7 macrophage cells (LPS-activated); for activity at 20 h, 20 μg/mL: 20 μg/mL after 20 h incubation in RAW 264.7 cells, read-out: Cytotoxic activity % Survival; for IC50 at 20 h: RAW 264.7 cells, SRB
Procedure: as §1, §2

[2] = tested on: NO production in LPS-activated murine macrophage RAW 264.7 cells; experiment: Assay for NO inhibitory effect using LPS-activated RAW 264.7 cells (Griess reagent); type: cell-based; settings: for IC50: LPS (1 μg/mL, 20 h)-activated RAW 264.7 cells
Procedure: as §2

GSK-3β = type: cell-based, yeast; settings: disk alone 7 mm
Procedure: Disruption of four yeast GSK-3 homologs (MCK1, MDS1, MRK1 and YOL128C) in gsk-3 null mutant confers a temperature-sensitive phenotype (growth defect at 37 °C), that can be suppressed by the expression of cloned mammalian GSK-3β [29]. Inhibition of GSK-3β should therefore mimic the phenotype of the gsk-3 null mutant, indicated by growth inhibition of transformant of gsk-3 null with pKT10-GSK-3β only at 37 °C. A genetically modified yeast strain, H10075 with genotype {MAT α his3 leu2 ura3 trp1 ade2 mck1::TRP1 mds1::HIS3 mrk1 yol128c::LEU2 [pKT10-GSK-3β], was grown in 5 mL of liquid media of SC minus uracil, shaking, at 37 °C for 2 days. Four hundred-μL of the yeast culture was added to 100 mL of SC minus uracil agar [0.67% yeast nitrogen base without amino acids and ammonium sulfate, 0.5% ammonium sulfate, 2% D-(+)-glucose anhydrate, 1 mL each of 0.03 mg/mL of adenine (hemisulfate salt), 0.03 mg/mL of L-tryptophan, 0.03 mg/mL of L-leucine, 0.03 mg/mL of L-histidine and 1.5% bacteriological agar, pH 5.6]. […] The Petri dishes were incubated at both 25 °C and 37 °C for 72 hours. Three phenotypes are observed on yeast plates. A clear zone of inhibition (ZOI) at 37 °C and no ZOI at 25 °C indicate that the agent tested inhibits the GSK-3β pathway. The clear zones of inhibition at both 37 and 25 °C of equal width indicate that the agents are cytotoxic. Plates that have a negative phenotype are plates that have no observable ZOI. […] The assays were performed in duplicate.

Structure (SMILES): CC1=C(CC/C(C)=C/CC[C@@]2(C)CC[C@@H]([C@H](C)C(=O)O)OO2)C(C)(C)CCC1 [Compound 1, epimuqubilin A]
- Cytotoxic effects (RAW 264.7 cells): no significant cytotoxic effects
- activity at 20 h, 20 μg/mL [1]: 36.1%
- IC50 at 20 h [1]: 37.1 µM
- IC50 ([2]; Mus musculus, RAW264.7, 20 h): 7.4 µM
- Yeast GSK-3β zone of inhibition (GSK-3β; 25 °C, 20 μg/disk): no ZOI
- Yeast GSK-3β zone of inhibition (GSK-3β; 37 °C, 20 μg/disk): 8 mm
- Yeast GSK-3β zone of inhibition (GSK-3β; 37 °C, 20 μg/disk, listed as Epimuqubilin A (1)): 9 mm
- Yeast GSK-3β zone of inhibition (GSK-3β; 37 °C, 40 μg/disk): 10–13 mm
- Yeast GSK-3β zone of inhibition (GSK-3β; 37 °C, 40 μg/disk, listed as Epimuqubilin A (1)): 10 mm

Structure (SMILES): CC(=O)CCCC(C)(C)C(=O)CCC(C)=CCCC1(C)CCC(C(C)C(=O)O)OO1 (stereo not drawn) [Compound 2, muqubilone B]
- activity at 20 h, 20 μg/mL [1]: 99%
- IC50 ([2]; Mus musculus, RAW264.7, 20 h): 23.8 µM

Structure (SMILES): COC(=O)C(C)C1CCC(C)(CCC=C(C)CCC=C(C)CCC=C(C)C)OO1 (stereo not drawn) [Compound 3]
- activity at 20 h, 20 μg/mL [1]: > 100%
- IC50 ([2]; Mus musculus, RAW264.7, 20 h): 46 µM

Structure (SMILES): C=C1CCCC(C)(C)C1(O)CC/C(C)=C/CC[C@]1(C)CC[C@H]([C@@H](C)C(=O)OC)OO1 (stereo partly drawn) [Compound 4, epimuqubilin B]
- activity at 20 h, 20 μg/mL [1]: > 100%
- IC50 ([2]; Mus musculus, RAW264.7, 20 h): 25.6 µM
- Yeast GSK-3β zone of inhibition (GSK-3β; 25 °C, 20 μg/disk): no ZOI
- Yeast GSK-3β zone of inhibition (GSK-3β; 37 °C, 20 μg/disk): 8 mm
- Yeast GSK-3β zone of inhibition (GSK-3β; 37 °C, 40 μg/disk): 10–13 mm
- Yeast GSK-3β zone of inhibition (GSK-3β; 37 °C, 40 μg/disk, listed as Epimuqubilin B (4)): 10 mm

Structure (SMILES): C=C1CCCC2C1(C)CCC(C)C2(C)CCC1(C)CCC(C(C)C(=O)OC)OO1 (stereo not drawn) [Compound 5, sigmosceptrellin A methyl ester]
- Cytotoxic activity % Survival (RAW 264.7 cells; 20 μg/mL after 20 h incubation in RAW 264.7 cells, listed as Sigmosceptrellin A methyl ester (5)): 90.6%
- IC50 ([2]; listed as Sigmosceptrellin A methyl ester (5)): > 100 µM
- NO inhibitory activity (in words) ([2]; LPS-activated RAW 264.7 cells): inactive

Structure (SMILES): C=C1CCC[C@H]2[C@](C)(CC[C@]3(C)CC[C@H]([C@@H](C)C(=O)O)OO3)[C@@H](C)CC[C@]12C [Compound 6, sigmosceptrellin A]
- Cytotoxic effects (RAW 264.7 cells): no significant cytotoxic effects
- activity at 20 h, 20 μg/mL [1]: 43%
- IC50 at 20 h [1]: 42.7 µM
- IC50 ([2]; Mus musculus, RAW264.7, 20 h): 9.9 µM
- Yeast GSK-3β zone of inhibition (GSK-3β; 25 °C, 20 μg/disk): no ZOI
- Yeast GSK-3β zone of inhibition (GSK-3β; 37 °C, 5 μg/disk): 8 mm
- Yeast GSK-3β zone of inhibition (GSK-3β; 37 °C, 10 μg/disk): 10 mm
- Yeast GSK-3β zone of inhibition (GSK-3β; 37 °C, 20 μg/disk): 8 mm
- Yeast GSK-3β zone of inhibition (GSK-3β; 37 °C, 20 μg/disk, listed as Sigmosceptrellin A (6)): 11 mm
- Yeast GSK-3β zone of inhibition (GSK-3β; 37 °C, 40 μg/disk): 10–13 mm
- Yeast GSK-3β zone of inhibition (GSK-3β; 37 °C, 40 μg/disk, listed as Sigmosceptrellin A (6)): 13 mm

Structure (SMILES): C=C1CCCC2C1(C)CCC(C)C2(C)CCC1(C)CCC(C(C)C(=O)OC)OO1 (stereo not drawn) [Compound 7, sigmosceptrellin B methyl ester]
- activity at 20 h, 20 μg/mL [1]: > 100%
- IC50 ([2]; Mus musculus, RAW264.7, 20 h): 65.7 µM

Structure (SMILES): [H]/N=C(/NC)NCCC[C@H](N)C(=O)O [L-NMMA, L-N^G-Monomethyl Arginine citrate, reference compound]
- activity at 20 h, 20 μg/mL [1]: > 100%
- IC50 ([2]; Mus musculus, RAW264.7, 20 h): 25.5 µM

Structure (SMILES): Cn1sc(=O)n(Cc2ccccc2)c1=O [TDZD-8, 4-Benzyl-2-methyl-1,2,4-thiadiazolidine-3,5-dione, reference compound]
- Yeast GSK-3β zone of inhibition (GSK-3β; 25 °C, 5 μg/disk): 8 mm
- Yeast GSK-3β zone of inhibition (GSK-3β; 25 °C, 10 μg/disk): 9 mm
- Yeast GSK-3β zone of inhibition (GSK-3β; 25 °C, 20 μg/disk): 10 mm
- Yeast GSK-3β zone of inhibition (GSK-3β; 25 °C, 40 μg/disk): 12 mm
- Yeast GSK-3β zone of inhibition (GSK-3β; 37 °C, 5 μg/disk): 9 mm
- Yeast GSK-3β zone of inhibition (GSK-3β; 37 °C, 10 μg/disk): 10 mm
- Yeast GSK-3β zone of inhibition (GSK-3β; 37 °C, 20 μg/disk): 11 mm
- Yeast GSK-3β zone of inhibition (GSK-3β; 37 °C, 40 μg/disk): 15 mm
